Results published in patent US9446081B2, “Pharmaceutical composition for preventing and treating complications of diabetes containing a traditional oriental medicine extract or a fraction thereof as an active ingredient” (KOREA INSTITUTE OF ORIENTAL MEDICINE, priority 2011, dated 2016).
In brackets after ≈: the same amount, converted by molar mass.

Experiments:
[1] = target: T1, aldose reductase from lens of SD rat (Rattus norvegicus, UniProt P07943); assay: Inhibiting effect on aldose reductase (AR) activity; type: biochemical, Sprague-Dawley rat
T1 construct: natural aldose reductase from the eyeball of SD rat; from tissue; host or cells: Sprague-Dawley rat lens, homogenised; centrifuged and filtered supernatant
Method: Inhibiting effect of the extract of Homonoia riparia Lour. or the fractions (normal-hexane fraction, ethyl acetate fraction, normal-butanol fraction, and water fraction) thereof on aldose reductase activity was investigated in vitro. To obtain natural aldose reductase from the eyeball of SD rat (Sprague-Dawley rat, 250˜280 g) according to the method of Dufrane (1984), 135 mM Na, K-phosphate buffer (pH 7.0), and 10 mM 2-mercaptoethanol were mixed with the extracted lens, which was ground by using a homogenizer and a sonicater. After performing centrifugation at 14,000 rpm for 30 minutes, the supernatant was filtered by using 0.2 μm filter. All the procedures were performed at 4° C. Quantification was performed by Lowry method using BSA as a protein source of the enzyme. The mixture comprising 135 mM Na, K-phosphate buffer (pH 7.0), 100 mM lithium sulfate, 0.03 mM NADPH, 0.04 mM DL-glycealdehyde and 100 μg/ml enzyme mixture was dissolved in 0.1% DMSO, which was distributed to 50 μl of each sample diluted at different concentrations by 50 μl to make the total volume 1 ml, followed by culture for 10 minutes at 37° C. The experimental blank group was added with the mixture excluding 0.04 mM DL-glycealdehyde, and STD was treated with the sample including 135 mM Na, K-phosphate buffer (pH 7.0), 100 mM lithium sulfate, and 50 μl of NADP (0.2˜5 μM). The reaction was terminated by adding 0.3 ml of 0.5 N HCl. 1 ml of 6 M NaOH including 10 mM imidazole was added thereto, followed by reaction at 60° C. for 10 minutes. Then, the conversion of NADP to fluorescent product was measured. The examination was performed in triplicate. The effect was measured by using a spectrofluorophotometric detector (Bio-TEK, Synergy HT, USA) (Ex. 360 nm, Em. 460 nm) and presented as IC50. The extract of Homonoia riparia Lour. was prepared at the concentration of 1 μg/ml, 2.5 μg/ml, or 5 μg/ml. The normal-hexane fraction was prepared at the concentration of 2.5 μg/ml, 5 μg/ml, or 10 μg/ml. The ethyl acetate fraction was prepared at the concentration of 0.5 μg/ml, 1 μg/ml, or 2.5 μg/ml. The normal-butanol fraction was prepared at the concentration of 1 μg/ml, 2.5 μg/ml, or 5.0 μg/ml. The water fraction was prepared at the concentration of 2.5 μg/ml, 5 μg/ml, or 10 μg/ml. As the comparative control group, one of the excellent aldose reductase inhibitors, 3,3-tetramethyleneglutaric acid, was prepared at the concentration of 3.72 μg/ml, 4.66 μg/ml, or 5.59 μg/ml. Then, AR inhibiting effect of each sample was measured.

[2] = target: AGE-BSA cross-linked to collagen (Bos taurus, UniProt P02769); assay: In vitro AGE cross-linking breaking effect (AGE-BSA on collagen-coated plate, ELISA); type: biochemical; settings: 4 hours at 37° C.; for AGE-BSA (%) remaining cross-linked: OD of treated well/untreated well x100
Method: 1.0 μg of AGE-BSA was distributed in a collagen-coated 96-well microtitre plate, followed by culture for 4 hours at 37° C. The plate was then washed with PBS containing 0.05% tween three times to eliminate non-conjugated AGE-BSA. Homonoia riparia Lour. The extract of Homonoia riparia Lour. or ALT-711 (4,5-dimethyl-3-(2-oxo-2-phenylethyl)-thiazolium chloride; Alteon Inc., Ramsey, N.J.) known as the AGEs cross-linking breaker was 2-fold diluted serially from the concentration of 1000 μg/ml to 1 μg/ml, which was added to each well (triplicate), followed by culture for 4 hours at 37° C. Upon completion of the culture, each well was washed with PBS containing 0.05% tween three times. To detect the AGE-BSA remaining as cross-linked to collagen, rabbit polyclonal anti-AGE-BSA antibody (MBL international, Woburn, Mass.) diluted at the ratio of 1:250 was distributed in each well, followed by culture for 1 hour at 37° C. One hour later, the plate was washed with PBS containing 0.05% tween three times, to which horseradish peroxidase-linked goat anti-rabbit antibody (Sigma, USA) was applied. Color development was induced by using 3,3′,5,5′-tetramethylbenzidine (TMB) as a substrate and OD450 was measured. Breaking % of AGE-BSA cross-linking was calculated by the following mathematical formula 2. AGE-BSA (%)=OD of sample treated well/OD of sample untreated well×100 [Mathematical Formula 2]

[3] = test system: advanced glycation endproducts production (bovine serum albumin + fructose/glucose); assay: Inhibiting effect on advanced glycation endproducts production (BSA with fructose/glucose, fluorescence); type: biochemical; settings: 14 days at 37° C.
Method: Inhibiting effect of the extract of Homonoia riparia Lour. obtained in <Example 1> and each fraction thereof (normal-hexane, ethyl acetate, normal-butanol, or water fraction) obtained in <Example 2> on the advanced glycation endproducts production was investigated in vitro. Bovine serum albumin (BSA, Sigma, USA) was used as a protein source. BSA was added to 50 mM phosphate buffer (pH 7.4) to make the concentration 10 mg/ml. 0.2 M fructose/0.2 M glucose mixed solution was used as a sugar source. The fructose/glucose mixed solution was added to the BSA solution prepared above. The ethanol extract of Homonoia riparia Lour. was prepared at the concentration of 2.5 μg/ml, 5 μg/ml, or 10 μg/ml. The normal-hexane fraction was prepared at the concentration of 10 μg/ml, 25 μg/ml, or 50 μg/ml. The ethyl acetate fraction was prepared at the concentration of 1.25 μg/ml, 2.5 μg/ml, or 5 μg/ml. The normal-butanol fraction was prepared at the concentration of 1.25 μg/ml, 2.5 μg/ml, or 5 μg/ml. The water fraction was prepared at the concentration of 2.5 μg/ml, 5 μg/ml, or 10 μg/ml. All the compounds were dissolved in dimethylsulfoxide (DMSO), to which 15% tween 80 was added. At that time, the final DMSO content was 0.2%. The prepared extract or the fractions thereof were added to the BSA/sugar mixed solution, followed by culture for 14 days at 37° C. At that time, 0.02% sodium azide and antimycotics were added as an anti-bacterial agent and an anti-fungal agent. The BSA/sugar mixed solution was cultured, which was used as the control. The extract or the fractions thereof were used as the blank. In the meantime, aminoguanidine was used as the positive control, which was the index for the effect comparison. Particularly, aminoguanidine was dissolved in distilled water, followed by culture by the same manner as described above at the concentration of 18.5 μg/ml, 37 μg/ml, or 55.5 μg/ml for 14 days. All the culture solutions were prepared 4 of each to minimize error. After 14 days of culture, the amount of the advanced glycation endproducts was measured. The advanced glycation endproducts were fluorescent brown and had physiochemical property suitable for cross-linking, and also had ligands which could be recognized by cell membrane receptors. The amount of the advanced glycation endproducts having the said properties was measured by a microplate reader (Excitation: 350 nm, Emission: 450 nm) to evaluate the inhibiting effect on the advanced glycation endproducts production (Vinson, J. A. et al., J. Nutr. Biochem., 7: 659-663, 1996). Inhibition rate of the advanced glycation endproducts production was calculated by the following mathematical formula 1. […]

AGE-BSA cross-linked to collagen, sequence (P02769 25-607): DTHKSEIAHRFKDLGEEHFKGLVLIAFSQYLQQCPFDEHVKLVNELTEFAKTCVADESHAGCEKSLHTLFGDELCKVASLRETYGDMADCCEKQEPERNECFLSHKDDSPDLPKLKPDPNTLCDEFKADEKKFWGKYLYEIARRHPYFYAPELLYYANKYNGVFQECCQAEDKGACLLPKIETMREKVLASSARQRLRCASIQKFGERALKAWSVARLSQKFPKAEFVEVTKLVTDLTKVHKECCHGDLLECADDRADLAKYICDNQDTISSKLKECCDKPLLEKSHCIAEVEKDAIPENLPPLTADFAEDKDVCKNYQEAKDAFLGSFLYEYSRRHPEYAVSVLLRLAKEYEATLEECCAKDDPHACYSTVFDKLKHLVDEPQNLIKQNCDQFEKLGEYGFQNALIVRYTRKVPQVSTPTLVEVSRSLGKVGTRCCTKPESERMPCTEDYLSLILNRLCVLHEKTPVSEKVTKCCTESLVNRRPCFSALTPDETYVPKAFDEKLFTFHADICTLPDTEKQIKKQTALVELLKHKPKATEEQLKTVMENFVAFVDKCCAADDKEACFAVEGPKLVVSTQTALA

For O=C(O)CC1(CC(=O)O)CCCC1 [3,3-tetramethyleneglutaric acid], the inhibition at 3.72 µg/mL ([1]; conc. 3.72 μg/ml) was 33 ± 4.36%, the inhibition at 4.66 µg/mL ([1]; conc. 4.66 μg/ml) was 40.3 ± 1.36% and the inhibition at 5.59 µg/mL ([1]; conc. 5.59 μg/ml) was 51.6 ± 0.78%. The IC50 ([1]; rat lens enzyme, read-out: Inhibiting effect (IC50) (μg/ml), aldose reductase (converted)) was 29.1 µM.
In the case of Cc1sc[n+](CC(=O)c2ccccc2)c1C.[Cl-] [ALT-711, 4,5-dimethyl-3-(2-oxo-2-phenylethyl)-thiazolium chloride], the IC50 ([2]; read-out: IC50 (μg/ml), AGE-BSA cross-linking breaking) is reported as > 3730 µM, the “AGE-BSA (%) remaining cross-linked” value ([2]; conc. 10 μg/ml) is reported as 100.18 ± 18.4% and the “AGE-BSA (%) remaining cross-linked” value ([2]; conc. 50 μg/ml) is reported as 100.13 ± 4.42%. For the same compound, the “AGE-BSA (%) remaining cross-linked” value ([2]; conc. 100 μg/ml) was 100.21 ± 5.46% and the “AGE-BSA (%) remaining cross-linked” value ([2]; conc. 1000 μg/ml) was 51.77 ± 9.54%.
N=C(N)NN [Aminoguanidine] was tested, and the “IC50 (μg/ml) 14th day, advanced glycation endproducts production” value [3] was 52.96 µg/mL (≈ 715 µM), the “Inhibition (%) 14th day” value ([3]; conc. 18.5 μg/ml) was 15.50 ± 1.79% and the “Inhibition (%) 14th day” value ([3]; conc. 37 μg/ml) was 33.56 ± 0.51%. The “Inhibition (%) 14th day” value ([3]; conc. 55.5 μg/ml) was 52.81 ± 2.81%.
